From EP4782445A1, “CDK KINASE INHIBITOR AND USE THEREOF” (Abbisko Therapeutics Co., Ltd., priority 2023, dated 2025) come the findings set out here.

What is called IC50 is the concentration at which inhibition is half-maximal.

One assay concerns the target T1, CDK4/cyclin D3 (Homo sapiens, UniProt P11802).
T1 construct: purchased Carna
The assay is described as follows: In vitro biochemical kinase activity assay for CDK4/cyclin D3 (HTRF). On the procedure: II. In Vitro Biochemical Kinase Activity Assay for CDK4/Cyclin D3
The inhibitory effects of the compounds of the present invention on CDK4/cyclin D3 kinase activity were determined using an HTRF assay. The experimental process was as follows: • 1. The kinase reaction was carried out in a 384-well plate. 4.9 nM CDK4/cyclin D3 (Carna), 1 mM (or 80 µM) ATP, and 0.3 µM biotin-labeled substrate protein Rb-biotin (Cisbio) were incubated at 30°C for 90 min in a buffer system composed of 50 mM MgCl2, 1 mM DTT, and basal kinase buffer (Cisbio). • 2. The detection solution (Cisbio, containing reagents that specifically recognize phosphorylated Rb and Rb-biotin proteins, respectively) was added. The plate was then sealed with a film (to protect from light and volatilization) and incubated at 25°C for 60 min. • 3. The plate was transferred to an Envision plate reader to detect FRET signals. (The 665/615 ratio was calculated by reading the emission at 665 nm and 615 nM, respectively.) • 4. The IC50 values were determined by analyzing the inhibition at varying compound concentrations using Model 205 in the XLfit software.

The target of another assay is T2, CDK6/cyclin D3 (Homo sapiens, UniProt Q00534).
T2 construct: purchased Carna
T2 sequence (Q00534 whole entry): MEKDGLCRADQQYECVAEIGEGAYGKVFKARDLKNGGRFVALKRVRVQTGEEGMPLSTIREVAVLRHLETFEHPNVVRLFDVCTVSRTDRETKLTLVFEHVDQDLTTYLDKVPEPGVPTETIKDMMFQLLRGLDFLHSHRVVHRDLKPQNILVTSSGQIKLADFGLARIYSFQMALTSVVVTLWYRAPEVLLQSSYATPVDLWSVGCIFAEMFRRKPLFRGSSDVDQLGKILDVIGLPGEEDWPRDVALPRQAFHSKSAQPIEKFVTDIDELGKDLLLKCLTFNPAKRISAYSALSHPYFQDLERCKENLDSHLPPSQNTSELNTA
T2 sequence (P30281 whole entry partner): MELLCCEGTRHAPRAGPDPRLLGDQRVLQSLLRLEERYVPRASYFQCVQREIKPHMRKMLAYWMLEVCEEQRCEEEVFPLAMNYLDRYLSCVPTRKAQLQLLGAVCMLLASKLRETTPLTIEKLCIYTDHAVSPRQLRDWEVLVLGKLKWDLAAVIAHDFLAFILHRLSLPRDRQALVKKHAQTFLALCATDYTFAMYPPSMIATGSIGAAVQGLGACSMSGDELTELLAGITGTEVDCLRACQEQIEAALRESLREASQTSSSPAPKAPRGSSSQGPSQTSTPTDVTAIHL
The assay is described as follows: In vitro biochemical kinase activity assay for CDK6/cyclin D3 (HTRF). Here is the method: III. In Vitro Biochemical Kinase Activity Assay for CDK6/Cyclin D3
The inhibitory effects of the compounds of the present invention on CDK6/cyclin D3 kinase activity were determined using an HTRF assay. The experimental process was as follows: 1. The kinase reaction was carried out in a 384-well plate. 0.02 nM CDK6/cyclin D3 (Carna), 1 mM (or 100 µM) ATP, and 0.3 µM biotin-labeled substrate protein Rb-biotin (Cisbio) were incubated at 30°C for 60 min in a buffer system composed of 5 mM MgCl2, 1 mM DTT, and basal kinase buffer (Cisbio). 2. The detection solution (Cisbio, containing reagents that specifically recognize phosphorylated Rb and Rb-biotin proteins, respectively) was added. The plate was then sealed with a film (to protect from light and volatilization) and incubated at 25°C for 60 min. 3. The plate was transferred to an Envision plate reader to detect FRET signals. (The 665/615 ratio was calculated by reading the emission at 665 nm and 615 nM, respectively.) 4. The IC50 values were determined by analyzing the inhibition at varying compound concentrations using Model 205 in the XLfit software.

The mark [1] stands for this setting: data marked with *: 1 mM ATP in Step 1.
[2] abbreviates: unmarked data: 80 µM ATP in Step 1.
Where [3] appears, read: unmarked data: 100 µM ATP in Step 1.

T1 sequence (P11802 whole entry): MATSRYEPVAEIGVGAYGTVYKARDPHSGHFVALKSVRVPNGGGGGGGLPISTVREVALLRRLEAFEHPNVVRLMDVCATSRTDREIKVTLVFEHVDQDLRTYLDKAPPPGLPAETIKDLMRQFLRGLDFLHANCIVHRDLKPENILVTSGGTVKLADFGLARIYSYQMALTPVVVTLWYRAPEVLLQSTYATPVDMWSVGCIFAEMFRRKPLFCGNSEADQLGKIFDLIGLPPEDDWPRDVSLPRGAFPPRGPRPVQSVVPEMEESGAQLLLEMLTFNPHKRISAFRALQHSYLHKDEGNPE
T1 sequence (P30281 whole entry partner): as the sequence (P30281 whole entry partner) above

In the case of `CC(C)c1c(C#Cc2nc(N[C@@H]3CCN(S(C)(=O)=O)C[C@H]3O)ncc2Cl)cnn1C` [Example 33, (3R,4R)-4-((5-chloro-4-((5-isopropyl-1-methyl-1H-pyrazol-4-yl)ethynyl)pyrimidin-2-yl)amino)-1-(methanesulfonyl)piperidin-3-ol], the 50% inhibitory concentration (IC50) turned out to be 1.35 nM against CDK4/cyclin D3 (setting [1]) and 10.3 nM at CDK6/cyclin D3 (setting [1]).

Take `CC(C)n1c(C#Cc2nc(N[C@@H]3CCOC[C@H]3O)ncc2Cl)cnc1CN1CC(C)(O)C1` [Example 38, 1-((5-((5-chloro-2-(((3 S,4R)-3-hydroxytetrahydro-2H-pyran-4-yl)amino)pyrimidin-4-yl)ethynyl)-1-isopropyl-1H-imidazol-2-yl)methyl)-3-methylazetidin-3-ol]: the IC50 against CDK4/cyclin D3 (setting [1]) stood at 172 nM; against CDK6/cyclin D3 (setting [1]), 2120 nM.

For the compound `CC(C)c1nn(C)cc1C#Cc1nc(N[C@@H]2CCOC[C@H]2O)ncc1Cl` [Example 54, (3 S,4R)-4-((5-chloro-4-((3-isopropyl-1-methyl-1H-pyrazol-4-yl)ethynyl)pyrimidin-2-yl)amino)tetrahydro-2H-pyran-3-ol], the IC50 against CDK4/cyclin D3 (setting [2]) was found to be 59 nM; on CDK6/cyclin D3 (setting [3]), 164 nM.

`CC(C)c1c(C#Cc2nc(Nc3ccc(C4CCN(C)CC4)cn3)ncc2F)cnn1C` [Example 59, 5-fluoro-4-((5-isopropyl-1-methyl-1H-pyrazol-4-yl)ethynyl)-N-(5-(1-methylpiperidin-4-yl)pyridin-2-yl)pyrimidin-2-amine]: the IC50 is 9.64 nM at CDK4/cyclin D3 (setting [2]) and 38.3 nM on CDK6/cyclin D3 (setting [3]). The like results for `CC(C)n1c(C#Cc2nc(N[C@@H]3CCNC[C@H]3O)ncc2Cl)cnc1C(C)(C)O` [Example 60, (3R,4R)-4-((5-chloro-4-((2-(2-hydroxypropan-2-yl)-1-isopropyl-1H-imidazol-5-yl)ethynyl)pyrimidin-2-yl)amino)piperidin-3-ol] were, in that order, 47.6 nM and 162 nM. Take `CC(C)c1c(C#Cc2nc(N[C@@H]3CCOC[C@H]3O)ncc2Cl)cnn1CC(C)(C)O` [Example 64, (3 S,4R)-4-((5-chloro-4-((1-(2-hydroxy-2-methylpropyl)-5-isopropyl-1H-pyrazol-4-yl)ethynyl)pyrimidin-2-yl)amino)tetrahydro-2H-pyran-3-ol]: the 50% inhibitory concentration (IC50) against CDK4/cyclin D3 (setting [2]) turned out to be 13.2 nM; against CDK6/cyclin D3 (setting [3]) it was 132 nM. On the same counts, the results for `CC(C)c1nn(CC(C)(C)O)cc1C#Cc1nc(N[C@@H]2CCOC[C@H]2O)ncc1Cl` [Example 65, (3 S,4R)-4-((5-chloro-4-((1-(2-hydroxy-2-methylpropyl)-3-isopropyl-1H-pyrazol-4-yl)ethynyl)pyrimidin-2-yl)amino)tetrahydro-2H-pyran-3-ol] are 119 nM and 1200 nM. On the same counts, the results for `CC(C)n1c(C#Cc2nc(Nc3ccc(N4CCN(C)CC4)cn3)ncc2Cl)cnc1C(C)(C)O` [Example 66, 2-(5-((5-chloro-2-((5-(4-methylpiperazin-1-yl)pyridin-2-yl)amino)pyrimidin-4-yl)ethynyl)-1-isopropyl-1H-imidazol-2-yl)propan-2-ol] are 1.03 nM and 1.9 nM. On the same counts, the results for `CCN1CCN(C(=O)c2ccc(Nc3ncc(Cl)c(C#Cc4cnc(C(C)(C)O)n4C(C)C)n3)nc2)CC1` [Example 67, (6-((5-chloro-4-((2-(2-hydroxypropan-2-yl)-1-isopropyl-1H-imidazol-5-yl)ethynyl)pyrimidin-2-yl)amino)pyridin-3-yl)(4-ethylpiperazin-1-yl)methanone] are 1.17 nM and 5.88 nM.

Take `CC(C)n1c(C#Cc2nc(N[C@@H]3CCOC[C@H]3O)ncc2Cl)cnc1C1CCCN1` (stereo partly drawn) [Example 68, (3 S,4R)-4-((5-chloro-4-((1-isopropyl-2-(pyrrolidin-2-yl)-1H-imidazol-5-yl)ethynyl)pyrimidin-2-yl)amino)tetrahydro-2H-pyran-3-ol]: the IC50 at CDK4/cyclin D3 (setting [1]) is 76.7 nM; against CDK6/cyclin D3 (setting [1]) it was 2600 nM. For `CCN1CCN(Cc2ccc(Nc3ncc(Cl)c(C#Cc4cnn(C)c4C(C)C)n3)nc2)CC1` [Example 69, 5-Chloro-N-(5-((4-ethylpiperazin-1-yl)methyl)pyridin-2-yl)-4-((5-isopropyl-1-methyl-1H-pyrazol-4-yl)ethynyl)pyrimidin-2-amine], the figures for the IC50 at CDK4/cyclin D3 (setting [1]) and against CDK6/cyclin D3 (setting [1]) were 4.71 nM and 38.4 nM, respectively. On the same counts, the results for `CCN1CCN(Cc2ccc(Nc3ncc(F)c(C#Cc4cnn(C)c4C(C)C)n3)nc2)CC1` [Example 70, N-(5-((4-ethylpiperazin-1-yl)methyl)pyridin-2-yl)-5-fluoro-4-((5-isopropyl-1-methyl-1H-pyrazol-4-yl)ethynyl)pyrimidin-2-amine] are 15.1 nM and 131 nM. On the same counts, the results for `CCN1CC2(C1)CN(c1ccc(Nc3ncc(Cl)c(C#Cc4cnc(C(C)(C)O)n4C(C)C)n3)nc1)C2` [Example 71, 2-(5-((5-chloro-2-((5-(6-ethyl-2,6-diazaspiro[3.3]heptan-2-yl)pyridin-2-yl)amino)pyrimidin-4-yl)ethynyl)-1-isopropyl-1H-imidazol-2-yl)propan-2-ol] are 2.52 nM and 6.31 nM.

For `CC(C)n1c(C#Cc2nc(N[C@@H]3CCOC[C@H]3O)ncc2Cl)cnc1CN1[C@H](C)COC[C@@H]1C` [Example 72, (3S,4R)-4-((5-chloro-4-((2-(((3R,5S)-3,5-dimethylmorpholino)methyl)-1-isopropyl-1H-imidazol-5-yl)ethynyl)pyrimidin-2-yl)amino)tetrahydro-2H-pyran-3-ol], the IC50 came to 17 nM on CDK4/cyclin D3 (setting [1]) and 263 nM against CDK6/cyclin D3 (setting [1]). On the same counts, the results for `CC(C)n1c(C#Cc2nc(Nc3ccc(C4CCN(C)CC4)cn3)ncc2F)cnc1C(C)(C)O` [Example 73, 2-(5-((5-fluoro-2-((5-(1-methylpiperidin-4-yl)pyridin-2-yl)amino)pyrimidin-4-yl)ethynyl)-1-isopropyl-1H-imidazol-2-yl)propan-2-ol] are 6.43 nM and 26.7 nM.

Consider `CC(C)n1c(C#Cc2nc(N[C@@H]3CCOC[C@H]3O)ncc2Cl)cnc1CN1[C@@H](C)COC[C@@H]1C` [Example 74, (3 S,4R)-4-((5-chloro-4-((2-(((3 S,5 S)-3,5-dimethylmorpholino)methyl)-1-isopropyl-1H-imidazol-5-yl)ethynyl)pyrimidin-2-yl)amino)tetrahydro-2H-pyran-3-ol], for which the IC50 turned out to be 20.1 nM against CDK4/cyclin D3 (setting [1]) and 341 nM against CDK6/cyclin D3 (setting [1]). Consider `CC(C)n1c(C#Cc2nc(N[C@@H]3CCOC[C@H]3O)ncc2Cl)cnc1CN1CCC[C@H](O)C1` [Example 75, (S)-1-((5-((5-chloro-2-(((3 S,4R)-3-hydroxytetrahydro-2H-pyran-4-yl)amino)pyrimidin-4-yl)ethynyl)-1-isopropyl-1H-imidazol-2-yl)methyl)piperidin-3-ol], for which the IC50 against CDK4/cyclin D3 (setting [1]) came out at 21.2 nM; at CDK6/cyclin D3 (setting [1]), 1160 nM. For `CCN1CCC(c2ccc(Nc3ncc(Cl)c(C#Cc4cnc(C(C)(C)O)n4C(C)C)n3)nc2)CC1` [Example 76, 2-(5-((5-chloro-2-((5-(1-ethylpiperidin-4-yl)pyridin-2-yl)amino)pyrimidin-4-yl)ethynyl)-1-isopropyl-1H-imidazol-2-yl)propan-2-ol], the IC50 against CDK4/cyclin D3 (setting [1]) came out at 2.9 nM; against CDK6/cyclin D3 (setting [1]), 6.53 nM. The like results for `CCN1CCN(Cc2ccc(Nc3cc(C#Cc4cnc(C(C)(C)O)n4C(C)C)c(Cl)cn3)nc2)CC1` [Example 77, 2-(5-((5-chloro-2-((5-((4-ethylpiperazin-1-yl)methyl)pyridin-2-yl)amino)pyridin-4-yl)ethynyl)-1-isopropyl-1H-imidazol-2-yl)propan-2-ol] were, in that order, 1.62 nM and 5.94 nM.

`CCN1CC2(C1)CN(c1ccc(Nc3ncc(F)c(C#Cc4cnn(C)c4C(C)(C)O)n3)nc1)C2` [Example 83, 2-(4-((2-((5-(6-ethyl-2,6-diazaspiro[3.3]heptan-2-yl)pyridin-2-yl)amino)-5-fluoropyrimidin-4-yl)ethynyl)-1-methyl-1H-pyrazol-5-yl)propan-2-ol]: on CDK4/cyclin D3 (setting [1]), it took 2860 nM to reach half-maximal inhibition (IC50). This counts as single-digit micromolar. Still for that read-out and setting: as for `CC(C)n1c(C#Cc2nc(N[C@@H]3CCC[C@@H](C(=O)N(C)C)C3)ncc2Cl)cnc1C(C)(C)O` [Example 96, (1R,3R)-3-((5-chloro-4-((2-(2-hydroxypropan-2-yl)-1-isopropyl-1H-imidazol-5-yl)ethynyl)pyrimidin-2-yl)amino)-N,N-dimethylcyclohexane-1-carboxamide], the figure is 3290 nM; as for `CC(C)n1c(C#Cc2nc(N[C@@H]3CCOC[C@H]3O)ncc2F)cnc1CN1CCC[C@H](O)C1` [Example 102, (S)-1-((5-((5-fluoro-2-(((3 S,4R)-3-hydroxytetrahydro-2H-pyran-4-yl)amino)pyrimidin-4-yl)ethynyl)-1-isopropyl-1H-imidazol-2-yl)methyl)piperidin-3-ol], 1040 nM.
